The assay concerns the target G-actin (Prodan-G-actin; actin) (Oryctolagus cuniculus, UniProt P68135). Put plainly: X-ray crystal structure. It counts as binding. The following applies: nucleotide site.

Regarding `Nc1ncnc2c1ncn2[C@@H]1O[C@H](COP(=O)(O)OP(=O)(O)OP(=O)(O)O)[C@@H](O)[C@H]1O` [ATP], the X-ray crystal structure result (actin co-crystallised with kabiramide C, Ca2+) is “ATP is bound to the actin in the KabC complex”.

With `Nc1ncnc2c1ncn2[C@@H]1O[C@H](COP(=O)(O)OP(=O)(O)O)[C@@H](O)[C@H]1O` [ADP], for the setting “actin co-crystallised with SF-01 or GC-04, Ca2+”, the X-ray crystal structure result is “complexes with GC-04 and SF-01 is occupied by ADP”.

The record behind these values is article PMC4213943 (ChemMedChem, 2014).
